This is an account of results in ChEMBL document CHEMBL4725390, “Asymmetrically Substituted Quadruplex-Binding Naphthalene Diimide Showing Potent Activity in Pancreatic Cancer Models” (ACS Med Chem Lett, 2020).

A word on the AUC(0-inf): it is the area under the concentration-time curve extrapolated to infinity. Lower therefore signals low exposure. The GI50 is the concentration giving 50% growth inhibition. By clearance is commonly meant the rate of elimination divided by the concentration. Read a high clearance as efficient removal. For orientation: half-life means the time needed for the level to fall by half in the phase considered. By Cmax is commonly meant the peak of the concentration-time curve. As usually defined, the AUC is the area under the concentration-time curve, a measure of exposure.

Data set [1] can be described thus: AUC (infinity) in mouse xenografted with human MIAPaCa2 cells at 14 mg/kg, iv administered as single dose. More on the design: route intravenous, time infinity, dose 14 mg/kg. The format is ADME, organism-based. Particulars: in vivo. A general note: In xenograft studies the graft and the host belong to different species.
The nature of data set [2]: Apparent volume of distribution in mouse xenografted with human MIAPaCa2 cells at 9.1 mg/kg, iv administered as single dose. The format is ADME, organism-based. Particulars: in vivo, read-out: Vz.
The nature of data set [3]: Volume of distribution at steady state in mouse xenografted with human MIAPaCa2 cells at 14 mg/kg, iv administered as single dose. The format is ADME, organism-based. To be noted: in vivo, read-out: Vdss.
Data set [4] deals with MIA PaCa-2. The data set can be described thus: Antitumor activity against human MIAPaCa2 cells xenografted in mouse assessed as change in tumor volume at 15 mg/kg, iv administered twice per week for 28 days and measured at day 28 by Caliper method relative to control. The format is functional. To be noted: time 28 day.
In data set [5] the test system is MIA PaCa-2. Nature of the data set: Antitumor activity against human MIAPaCa2 cells xenografted in mouse assessed as mean tumor volume at 10 mg/kg, iv administered twice per week for 28 days and measured at day 53 by Caliper method (reference value: 1.60 +/- 0.44 cm3). In kind it is functional. To be noted: time 28 day.
In data set [6] the test system is Mus musculus. Nature of the data set: Effect on hTERT expression in mouse xenografted with human MIAPaCa2 cells at 15 mg/kg, iv administered twice per week for 28 days and measured on day 28 by Western blot analysis. In kind it is functional, organism-based. Particulars: time 28.0 day.
The subject of another data set is CAPAN-1. Nature of the data set: Antiproliferative activity against human Capan1 cells assessed as growth inhibition after 96 hrs by SRB assay. In kind it is functional. A general note: Sulforhodamine B stains cellular protein and so reports cell mass.
A short description of data set [7]: Clearance in mouse xenografted with human MIAPaCa2 cells at 14 mg/kg, iv administered as single dose. The format is ADME, organism-based. To be noted: in vivo.
Data set [8] in a line: Apparent volume of distribution in mouse xenografted with human MIAPaCa2 cells at 14 mg/kg, iv administered as single dose. The format is ADME, organism-based. To be noted: in vivo, read-out: Vz.
Data set [9] concerns MIA PaCa-2. The data set can be described thus: Antitumor activity against human MIAPaCa2 cells xenografted in mouse assessed as mean tumor volume at 10 mg/kg, iv administered twice per week for 28 days and measured at day 28 by Caliper method (reference value: 0.45 +/- 0.18 cm3). To be noted: time 28 day. The format is functional.
The test system of data set [10] is Mus musculus. Nature of the data set: Effect on hTERT expression in mouse xenografted with human MIAPaCa2 cells at 10 mg/kg, iv administered twice per week for 28 days and measured on day 28 by Western blot analysis. In kind it is functional, organism-based. To be noted: time 28.0 day.
Data set [11] in a line: Half life in mouse xenografted with human MIAPaCa2 cells at 14 mg/kg, iv administered as single dose. In kind it is ADME, organism-based. To be noted: in vivo.
The subject of a further data set is BXPC-3. The data set can be described thus: Antiproliferative activity against human BxPC3 cells assessed as growth inhibition after 96 hrs by SRB assay. In kind it is functional.
A short description of data set [12]: Volume of distribution at steady state in mouse xenografted with human MIAPaCa2 cells at 9.1 mg/kg, iv administered as single dose. Particulars: in vivo, read-out: Vdss. In kind it is ADME, organism-based.
For data set [13], the system named is MIA PaCa-2. Nature of the data set: Antitumor activity against human MIAPaCa2 cells xenografted in mouse assessed as change in tumor volume at 1 mg/kg, iv administered twice per week for 28 days and measured at day 53 by Caliper method relative to control. To be noted: time 28 day. The format is functional.
Data set [14] can be described thus: AUC (infinity) in mouse xenografted with human MIAPaCa2 cells at 9.1 mg/kg, iv administered as single dose. In kind it is ADME, organism-based. More on the design: route intravenous, time infinity, dose 9.1 mg/kg. To be noted: in vivo.
A further data set relates to PANC-1. The data set can be described thus: Antiproliferative activity against human PANC1 cells assessed as growth inhibition after 96 hrs by SRB assay. In kind it is functional.
Data set [15] concerns MIA PaCa-2. The data set can be described thus: Antiproliferative activity against human MIAPaCa2 cells assessed as growth inhibition after 96 hrs by SRB assay. In kind it is functional.
The nature of data set [16]: Half life in mouse xenografted with human MIAPaCa2 cells at 9.1 mg/kg, iv administered as single dose. In kind it is ADME, organism-based. To be noted: in vivo.
Data set [17] concerns MIA PaCa-2. Nature of the data set: Antitumor activity against human MIAPaCa2 cells xenografted in mouse assessed as change in tumor volume at 15 mg/kg, iv administered twice per week for 28 days and measured at day 53 by Caliper method relative to control. The format is functional. To be noted: time 28 day.
Data set [18] can be described thus: Cmax in mouse xenografted with human MIAPaCa2 cells at 9.1 mg/kg, iv administered as single dose. More on the design: route intravenous, dose 9.1 mg/kg. Particulars: in vivo. The format is ADME, organism-based.
Data set [19] relates to Mus musculus. The data set can be described thus: Down regulation of MAPK11 expression in mouse xenografted with human MIAPaCa2 cells at 15 mg/kg, iv administered twice per week for 28 days and measured on day 28 by Western blot analysis. In kind it is functional, organism-based. Particulars: time 28.0 day.
The nature of data set [20]: Cmax in mouse xenografted with human MIAPaCa2 cells at 14 mg/kg, iv administered as single dose. In kind it is ADME, organism-based. On the set-up: route intravenous, dose 14 mg/kg. Particulars: in vivo.
A further data set deals with Quadruplex DNA. Nature of the data set: Binding affinity to G4 quadruplex DNA in human PANC1 cells assessed as increase in number of BG4 foci at 400 nM after 24 hrs by immunofluorescence based confocal microscopic analysis. In kind it is cell-based. Particulars: PANC-1.
Data set [21] is described as follows: AUC in mouse xenografted with human MIAPaCa2 cells at 9.1 mg/kg, iv administered as single dose. Particulars: in vivo. On the set-up: dose 9.1 mg/kg. The format is ADME, organism-based.
Data set [22] relates to Mus musculus. The data set can be described thus: Down regulation of MAPK11 expression in mouse xenografted with human MIAPaCa2 cells at 10 mg/kg, iv administered twice per week for 28 days and measured on day 28 by Western blot analysis. In kind it is functional, organism-based. To be noted: time 28.0 day.
The subject of data set [23] is MIA PaCa-2. Nature of the data set: Antitumor activity against human MIAPaCa2 cells xenografted in mouse assessed as change in tumor volume at 10 mg/kg, iv administered twice per week for 28 days and measured at day 28 by Caliper method relative to control. To be noted: time 28 day. The format is functional.
Data set [24] has as its system MIA PaCa-2. Nature of the data set: Antitumor activity against human MIAPaCa2 cells xenografted in mouse assessed as change in tumor volume at 10 mg/kg, iv administered twice per week for 28 days and measured at day 53 by Caliper method relative to control. In kind it is functional. To be noted: time 28 day.
Data set [25] in a line: Clearance in mouse xenografted with human MIAPaCa2 cells at 9.1 mg/kg, iv administered as single dose. To be noted: in vivo. The format is ADME, organism-based.
Data set [26] in a line: AUC in mouse xenografted with human MIAPaCa2 cells at 14 mg/kg, iv administered as single dose. To be noted: in vivo. The format is ADME, organism-based. More on the design: dose 14 mg/kg.
Data set [27] deals with MIA PaCa-2. Nature of the data set: Antiproliferative activity against human MIAPaCa2 cells assessed as growth inhibition after 96 hrs by MTS assay relative to SOP1812. In kind it is functional.

Activity calls are given as the source filed them.

As for `O=C1c2ccc3c4c(c(NCCN5CCCC5)cc(c24)C(=O)N1CCCN1CCOCC1)C(=O)N(CCCN1CCOCC1)C3=O`, the AUC(0-inf) in [1] came to 34400 ng·h/mL; in data set [14] it was 14500 ng·h/mL. Also, the Vd in data set [2] worked out at 27.8 L/kg; in [3], 2.2 L/kg; in data set [8], 11.8 L/kg; in data set [12] it was 5.2 L/kg. Further, the Activity in the data set on MIA PaCa-2 [4] was -73.3%; in the data set with MIA PaCa-2 [5], 0.63 cm3; with MIA PaCa-2 [9] it was 0.16 cm3; with MIA PaCa-2 [13], -90.6%; in the data set on MIA PaCa-2 [17] it was -78.1%; with MIA PaCa-2 [23], -64.4%. Also, the Activity in the data set with MIA PaCa-2 [24] is reported as -60.6%. For the same compound, the result in the data set on Mus musculus [6] and with Mus musculus [10] was inactive. Also, the GI50 was determined as 26.5 nM with CAPAN-1, 15.5 nM in the data set with BXPC-3, 15.6 nM in the data set on PANC-1 and 9 nM in the data set with MIA PaCa-2 [15]. Also, the clearance in [7] turned out to be 8.1 mL/min/kg; in data set [25] it was 10.9 mL/min/kg. Besides, the half-life was 16 h in data set [11] and 33 h in data set [16]. The Cmax came out at 4520 ng/mL in data set [18] and 22100 ng/mL in data set [20]. In the data set on Mus musculus [19], the inhibition result was “Active”. In addition, the result with Quadruplex DNA was Active. Further, the AUC was determined as 11100 ng·h/mL in data set [21] and 30600 ng·h/mL in data set [26]. Besides, in the data set with Mus musculus [22], the inhibition entry was “inactive”.
For `O=C1c2cc(-c3ccccc3CN3CCCC3)c3c4c(cc(NCCN5CCCC5)c(c24)C(=O)N1CCCN1CCOCC1)C(=O)N(CCCN1CCOCC1)C3=O`, in the data set on MIA PaCa-2 [27], the “growth inhibition (GI)” value amounted to 2.7%.
Same read-out and setting: next, `O=C1c2cc(-c3ccc(CN4CCOCC4)cc3)c3c4c(cc(NCCN5CCCC5)c(c24)C(=O)N1CCCN1CCOCC1)C(=O)N(CCCN1CCOCC1)C3=O`: 19.2%.
Same read-out and setting: for `O=C1c2cc(-c3cccc(CN4CCCC4)c3)c3c4c(cc(NCCN5CCCC5)c(c24)C(=O)N1CCCN1CCOCC1)C(=O)N(CCCN1CCOCC1)C3=O` the value was 19.7%.
On the same count and under the same terms, for `O=C1c2cc(-c3ccc(CN4CCCCCC4)cc3)c3c4c(cc(NCCN5CCCC5)c(c24)C(=O)N1CCCN1CCOCC1)C(=O)N(CCCN1CCOCC1)C3=O` the value was 30.7%; for `O=C1c2cc(-c3ccc(CNC4CCCC4)cc3)c3c4c(cc(NCCN5CCCC5)c(c24)C(=O)N1CCCN1CCOCC1)C(=O)N(CCCN1CCOCC1)C3=O`, 54.9%; for `O=C1c2cc(-c3ccc(CN4CCCCC4)cc3)c3c4c(cc(NCCN5CCCC5)c(c24)C(=O)N1CCCN1CCOCC1)C(=O)N(CCCN1CCOCC1)C3=O`, 32%.
On to `O=C(c1ccc(-c2cc3c4c(c(NCCN5CCCC5)cc5c4c2C(=O)N(CCCN2CCOCC2)C5=O)C(=O)N(CCCN2CCOCC2)C3=O)cc1)N1CCCC1`, for which the “growth inhibition (GI)” value in the data set on MIA PaCa-2 [27] is listed as 10.9%.
The same measure, in the same setting: next, `CCN(CC)Cc1ccc(-c2cc3c4c(c(NCCN5CCCC5)cc5c4c2C(=O)N(CCCN2CCOCC2)C5=O)C(=O)N(CCCN2CCOCC2)C3=O)cc1`: 31.1%; `O=C1c2cc(-c3ccc(N4CCCC4)cc3)c3c4c(cc(NCCN5CCCC5)c(c24)C(=O)N1CCCN1CCOCC1)C(=O)N(CCCN1CCOCC1)C3=O`: 1.9%; `CN1CCN(Cc2ccc(-c3cc4c5c(c(NCCN6CCCC6)cc6c5c3C(=O)N(CCCN3CCOCC3)C6=O)C(=O)N(CCCN3CCOCC3)C4=O)cc2)CC1`: 20.2%.
For the compound `Nc1ccn([C@@H]2O[C@H](CO)[C@@H](O)C2(F)F)c(=O)n1` [GEMCITABINE], the Activity in the data set with MIA PaCa-2 [4] is reported as -71.1%; in the data set with MIA PaCa-2 [17] it was -75.6%. Further, the result with Mus musculus [6] was inactive. For the same compound, the inhibition entry with Mus musculus [19] is “inactive”.
